Patent US20250289813A1, “CDK INHIBITORS, PHARMACEUTICAL COMPOSITIONS, AND THERAPEUTIC APPLICATIONS” (ONQUALITY PHARMACEUTICALS CHINA LTD., priority 2022, published 2025)

Assays:
[1] = target: CDK6/cyclin D1 (Homo sapiens (Human), UniProt Q00534); test: CDK6 Caliper Mobility Shift assay; type: biochemical
In short: (§1)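 Caliper mobility-shift kinase assay with FAM-labeled peptide substrate. CDK4/cyclin D1 (15 nM) ran in 20 mM HEPES pH 7.5, 0.01% Triton X-100 at […] ATP; CDK6/cyclin D1 (7.5 nM) in 50 mM HEPES pH 7.5, 0.0015% BRIJ-35 at […] ATP. Compound was pre-incubated 10 min, reactions ran at 28 °C, and IC50 came from percent conversion inhibition.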

[2] = tested on: MCF-7 human breast cancer cells; test: CELLTITER-GLO luminescent cell viability assay; type: cell-based; settings: MCF7, 192 h, MCF-7 cells, 8 days, read-out: EC50 (Effect on Cell Viability)
In short: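 MCF-7 cells grown in EMEM with 10% FBS and insulin, seeded at 3,000 cells/well and left to adhere overnight. Compound exposure lasted 8 days at 37 °C; viability was read by CellTiter-Glo luminescence.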

[3] = target: CDK4/cyclin D1 (Homo sapiens (Human), UniProt P11802); test: CDK4 Caliper Mobility Shift assay; type: biochemical
In short: as §1

[4] = tested on: BALB/c mice; test: Irinotecan-induced diarrhea/constipation mouse model; type: in vivo; settings: Day 7
Experimental: A compound was evaluated in an irinotecan-induced diarrhea/constipation mouse model for its protective effect on the cytotoxicity induced by a chemotherapy drug. On day 0, BALB/c mice (20-25 g, 7-8 weeks of age) were randomly divided into 3 groups (vehicle, irinotecan, and compound treatment) with 10 mice in each group. In the vehicle group, the mice were administered orally with the same medium in the same amount as used in the treatment group for the compound and then injected with the same medium in the same amount as used in the irinotecan group. In the irinotecan group, the mice were administered orally with the same medium in the same amount as used in the treatment group for the compound and then injected with irinotecan (240 mg/kg). In the treatment group, the mice were administrated orally with the compound and then injected with irinotecan (240 mg/kg). The compound was formulated with a 0.5% CMC solution. […]
(§2) On Day 7, the diarrhea grade of each mouse was determined according to the method described in Kurita et al., Cancer Chemother. Pharmacol. 2000, 46, 211-20, the disclosure of which is incorporated herein by reference in its entirety. The diarrhea remission rates were calculated using the formula of Diarrhea remission rate (%)=(diarrhea grade in 5-FU group−diarrhea grade in treatment group)/diarrhea grade in 5-FU group×100%.

[5] = tested on: COLO205 human colon cancer cells; test: CASPASE-GLO 3/7 apoptosis assay (protection against chemotherapy drug induced cytotoxicity); type: cell-based
Experimental: The CASPASE-GLO 3/7 apoptosis assay was used to evaluate the protective effect of a compound on the cytotoxicity induced by a chemotherapy drug. The apoptosis assay was carried out using COLO205 human colon cancer cells. The cells were grown at 37° C. in a 5% CO2 humidified incubator in PRIM1640 supplemented with 10% FBS and 0.01 mg/mL bovine insulin. The cells were seeded at 4,000 cells/well in a 96-well plate. After incubated overnight, the cells were pretreated with a compound at predetermined concentrations or a vehicle for 16 h, followed by addition of a chemotherapy drug. After incubated for another 48 h, the CASPASE-GLO 3/7 reagent (100 μL/well) was added. The cells were mixed on an orbital shaker for 10 min and incubated at room temperature for 2 h. The 96-well plate was read with an ENVISION reader.

[6] = tested on: BALB/c mice; test: 5-FU-induced diarrhea mouse model; type: in vivo; settings: day 7
Experimental: A compound was evaluated in a 5-FU-induced diarrhea mouse model for its protective effect on the cytotoxicity induced by the chemotherapy drug 5-FU. On day 0, BALB/c mice (20-25 g, 7-8 weeks of age) were randomly divided into 3 groups (vehicle, 5-FU, and compound treatment) with 10 mice in each group. In the vehicle group, the mice were administered orally with the same medium in the same amount as used in the treatment group for the compound and then injected with the same medium in the same amount as used in the 5-FU group. In the 5-FU group, the mice were administered orally with the same medium in the same amount as used in the treatment group for the compound and then injected with 5-FU (175 mg/kg). In the treatment group, the mice were administrated orally with the compound and then injected with 5-FU (175 mg/kg). The compound was formulated with a 0.5% CMC solution.
as §2, with “day” for “Day”, “Diarrhea” for “The diarrhea”, “group—diarrhea” for “group−diarrhea”

Chain of CDK6/cyclin D1 (Q00534 whole entry): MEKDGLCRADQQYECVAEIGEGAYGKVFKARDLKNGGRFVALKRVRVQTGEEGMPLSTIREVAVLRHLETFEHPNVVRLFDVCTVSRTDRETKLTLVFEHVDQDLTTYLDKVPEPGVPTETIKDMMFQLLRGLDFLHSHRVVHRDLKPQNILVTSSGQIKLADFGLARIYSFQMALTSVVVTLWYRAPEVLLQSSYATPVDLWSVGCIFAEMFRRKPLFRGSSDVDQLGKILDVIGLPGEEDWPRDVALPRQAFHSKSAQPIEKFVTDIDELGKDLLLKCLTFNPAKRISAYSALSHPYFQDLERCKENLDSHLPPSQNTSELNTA
Chain of CDK6/cyclin D1 (P24385 whole entry partner): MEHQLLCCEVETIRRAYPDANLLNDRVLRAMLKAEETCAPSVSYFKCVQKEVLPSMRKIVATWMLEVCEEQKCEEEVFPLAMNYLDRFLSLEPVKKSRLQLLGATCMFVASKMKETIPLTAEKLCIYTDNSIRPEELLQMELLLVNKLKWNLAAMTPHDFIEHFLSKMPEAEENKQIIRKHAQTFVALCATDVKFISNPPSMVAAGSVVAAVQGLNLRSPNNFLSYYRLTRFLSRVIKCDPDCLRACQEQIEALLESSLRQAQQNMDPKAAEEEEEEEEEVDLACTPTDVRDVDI
Chain of CDK4/cyclin D1 (P11802 whole entry): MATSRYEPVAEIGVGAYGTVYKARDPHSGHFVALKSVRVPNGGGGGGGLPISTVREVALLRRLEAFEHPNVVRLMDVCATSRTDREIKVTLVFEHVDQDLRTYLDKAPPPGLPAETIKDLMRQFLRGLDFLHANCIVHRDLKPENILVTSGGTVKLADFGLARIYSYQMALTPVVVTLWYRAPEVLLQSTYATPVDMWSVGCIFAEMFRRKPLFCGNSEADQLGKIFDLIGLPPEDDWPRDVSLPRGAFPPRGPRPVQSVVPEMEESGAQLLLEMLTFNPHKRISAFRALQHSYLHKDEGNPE
Chain of CDK4/cyclin D1 (P24385 whole entry partner): as the sequence (P24385 whole entry partner) above

Q: Which IC50 [1] does the source give for CC(=O)c1c(C)c2cnc(Nc3ccc(N4CCN(S(=O)(=O)NC(=O)OC5CCOCC5)CC4)cn3)nc2n(C2CCCC2)c1=O [Compound A22, Tetrahydro-2H-pyran-4-yl ((4-(6-((6-acetyl-8-cyclopentyl-5-methyl-7-oxo-7,8-dihydropyrido[2,3-d]pyrimidin-2-yl)amino)pyridin-3-yl)piperazin-1-yl)sulfonyl)carbamate] here?
A: ≤ 200 nM

Q: And the EC50 [2]?
A: > 10000 nM

Q: What about the IC50 [3] of the same molecule?
A: 200 to 500 nM

Q: What about the “Remission Rate (diarrhea remission rate)” value ([4]; 5 mg/kg oral, 6 h before and 6 h after irinotecan (240 mg/kg)) of the same molecule?
A: 30%

Q: What about the “Remission Rate (diarrhea remission rate)” value ([4]; 25 mg/kg oral, 6 h before and 6 h after irinotecan (240 mg/kg)) of the same molecule?
A: 50%

Q: And the “RPR (relative protection rate)” value ([5]; compound 0.5 μM, 5-Fu (10 μM))?
A: 26%

Q: And the “RPR (relative protection rate)” value ([5]; compound 25 μM, 5-Fu (10 μM))?
A: 64%

Q: And the “Remission Rate (diarrhea remission rate)” value ([6]; 50 mg/kg oral, 8 h before and 4 h after 5-FU (175 mg/kg))?
A: 55%

Q: What about the “Remission Rate (diarrhea remission rate)” value ([6]; 100 mg/kg oral, 8 h before and 4 h after 5-FU (175 mg/kg)) of the same molecule?
A: 36%

Q: How did the IC50 [1] turn out when CCC(=O)NS(=O)(=O)N1CCN(c2ccc(Nc3ncc4c(C)c(C(C)=O)c(=O)n(C5CCCC5)c4n3)nc2)CC1 [Compound A35, N-((4-(6-((6-Acetyl-8-cyclopentyl-5-methyl-7-oxo-7,8-dihydropyrido[2,3-d]-pyrimidin-2-yl)amino)pyridin-3-yl)piperazin-1-yl)sulfonyl)propionamide] was run?
A: ≤ 200 nM

Q: What about the EC50 [2] of the same molecule?
A: 1000 to 10000 nM

Q: And the IC50 [3]?
A: ≤ 200 nM

Q: What about the “Remission Rate (diarrhea remission rate)” value ([4]; 10 mg/kg oral, 6 h before and 6 h after irinotecan (240 mg/kg)) of the same molecule?
A: 50%

Q: And the “Remission Rate (diarrhea remission rate)” value ([4]; 100 mg/kg oral, 6 h before and 6 h after irinotecan (240 mg/kg))?
A: 70%

Q: And the “RPR (relative protection rate)” value ([5]; compound 2 μM, Irinotecan (20 μM))?
A: 83%

Q: What about the “RPR (relative protection rate)” value ([5]; compound 20 μM, Irinotecan (20 μM)) of the same molecule?
A: 81%

Q: What about the “Remission Rate (diarrhea remission rate)” value ([6]; 5 mg/kg oral, 12 h before 5-FU (175 mg/kg)) of the same molecule?
A: 40%

Q: And the “Remission Rate (diarrhea remission rate)” value ([6]; 25 mg/kg oral, 12 h before 5-FU (175 mg/kg))?
A: 50%

Q: Which results are given for CC(=O)c1c(C)c2cnc(Nc3ccc(N4CCN(S(=O)(=O)OCOC(=O)C(C)(C)C)CC4)cn3)nc2n(C2CCCC2)c1=O [Compound B1, (((4-(6-((6-acetyl-8-cyclopentyl-5-methyl-7-oxo-7,8-dihydropyrido[2,3-d]-pyrimidin-2-yl)amino)pyridin-3-yl)piperazin-1-yl)sulfonyl)oxy)methyl pivalate]?
A: IC50 [1]: ≤ 200 nM; EC50 [2]: ≤ 1000 nM; IC50 [3]: ≤ 200 nM; Remission Rate (diarrhea remission rate) ([4]; 10 mg/kg oral, 4 h before and 8 h after irinotecan (240 mg/kg)): 60%; RPR (relative protection rate) ([5]; compound 5 μM, Irinotecan (20 μM)): 90%; RPR (relative protection rate) ([5]; compound 50 μM, Irinotecan (20 μM)): 65%; RPR (relative protection rate) ([5]; compound 100 μM, Irinotecan (20 μM)): 32%; Remission Rate (diarrhea remission rate) ([6]; 10 mg/kg oral, 8 h before and 4 h after 5-FU (175 mg/kg)): 38%
